These results are taken from ChEMBL document CHEMBL3826945, “Discovery of novel dihydrobenzofuran cyclopropane carboxylic acid based calcium sensing receptor antagonists for the treatment of osteoporosis” (Bioorg Med Chem Lett, 2016).

The structures appear in SMILES notation. Activity calls are given as the source filed them. The calls are words filed in the database; no cut-off is given here.

For series [1], the target named is T1, Extracellular calcium-sensing receptor (Homo sapiens, UniProt P41180).
T1 sequence (P41180 whole entry): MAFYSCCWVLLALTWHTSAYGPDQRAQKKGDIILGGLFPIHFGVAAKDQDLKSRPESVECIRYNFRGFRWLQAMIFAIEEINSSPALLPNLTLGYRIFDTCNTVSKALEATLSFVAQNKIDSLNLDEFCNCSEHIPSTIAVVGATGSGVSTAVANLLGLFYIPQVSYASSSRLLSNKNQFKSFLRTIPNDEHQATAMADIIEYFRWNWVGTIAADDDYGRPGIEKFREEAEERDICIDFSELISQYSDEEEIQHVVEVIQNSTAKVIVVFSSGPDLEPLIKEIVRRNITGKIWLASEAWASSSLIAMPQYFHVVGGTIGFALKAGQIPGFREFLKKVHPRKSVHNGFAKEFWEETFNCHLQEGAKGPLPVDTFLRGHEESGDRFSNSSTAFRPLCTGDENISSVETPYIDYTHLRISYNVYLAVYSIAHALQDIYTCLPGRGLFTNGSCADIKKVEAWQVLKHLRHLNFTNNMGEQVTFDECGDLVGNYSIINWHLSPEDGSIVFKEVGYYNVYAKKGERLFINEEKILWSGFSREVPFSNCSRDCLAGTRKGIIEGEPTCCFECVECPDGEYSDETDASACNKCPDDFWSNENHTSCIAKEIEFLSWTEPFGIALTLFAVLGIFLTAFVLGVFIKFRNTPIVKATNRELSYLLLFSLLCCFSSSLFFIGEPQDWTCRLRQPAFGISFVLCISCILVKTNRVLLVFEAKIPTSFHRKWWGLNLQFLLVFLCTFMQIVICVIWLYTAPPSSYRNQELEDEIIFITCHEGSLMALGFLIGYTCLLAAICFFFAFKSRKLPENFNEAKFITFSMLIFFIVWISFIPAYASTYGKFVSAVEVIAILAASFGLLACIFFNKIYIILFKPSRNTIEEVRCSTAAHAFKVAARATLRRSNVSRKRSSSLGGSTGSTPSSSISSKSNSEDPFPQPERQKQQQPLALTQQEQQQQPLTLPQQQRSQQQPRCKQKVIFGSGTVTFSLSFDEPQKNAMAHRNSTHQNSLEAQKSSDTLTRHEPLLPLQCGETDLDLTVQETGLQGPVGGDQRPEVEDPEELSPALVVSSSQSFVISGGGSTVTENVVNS
As to the kind of experiment: Antagonist activity at calcium sensing receptor (unknown origin) by cell based FLIPR assay. The format is functional.

Series [2] can be described thus: Oral bioavailability in Sprague-Dawley rat at 5 mg/kg. It counts as ADME, organism-based. The following applies: in vivo.
Series [3] in a line: Cmax in Sprague-Dawley rat at 2 mg/kg, iv or 5 mg/kg, po. It counts as ADME, organism-based. The following applies: in vivo.
Series [4] can be described thus: Clearance in Sprague-Dawley rat plasma at 2 mg/kg, iv or 5 mg/kg, po. It counts as ADME, organism-based.
A short description of series [5]: Half life in Sprague-Dawley rat at 2 mg/kg, iv or 5 mg/kg, po. It counts as ADME, organism-based. The following applies: in vivo.
Series [6] has as its system Rattus norvegicus. As to the kind of experiment: Stimulation of parathyroid hormone release in overnight fasted Sprague-Dawley rat serum at 30 mg/kg, po measured after 2 hrs by ELISA. The format is functional, organism-based. A general note: ELISA stands for enzyme-linked immunosorbent assay.
The test system of series [7] is Rattus norvegicus. In words: Stimulation of parathyroid hormone release in po dosed overnight fasted Sprague-Dawley rat serum after 7 days by ELISA. It counts as functional, organism-based.
Series [8] has as its system Rattus norvegicus. As to the kind of experiment: Stimulation of parathyroid hormone release in overnight fasted Sprague-Dawley rat serum at 30 mg/kg, po measured within 1 hour by ELISA relative to vehicle treated control. It counts as functional.
Series [9] is described as follows: Tmax in Sprague-Dawley rat at 2 mg/kg, iv or 5 mg/kg, po. The format is ADME, organism-based. The settings on record: in vivo.

Usually IC50 stands for the point on the concentration scale where inhibition reaches its midpoint. Consider `Cc1ccc([C@@H](C)OC[C@H](O)CNC(C)(C)Cc2ccc3ccccc3c2)c2c1O[C@@H]1[C@@H](C(=O)O)[C@H]21`, for which, in series [1], the IC50 came out at 7.45 nM.

For the compound `Cc1ccc([C@@H](C)OC[C@H](O)CNC(C)(C)CCSc2ccccc2)c2c1O[C@@H]1[C@@H](C(=O)O)[C@H]21`, in series [1], the IC50 was 50.8 nM.

As for `CSc1ccc(CC(C)(C)NC[C@@H](O)CO[C@H](C)c2ccc(C)c3c2[C@@H]2[C@H](O3)[C@H]2C(=O)O)cc1`, the half-maximal inhibitory concentration (IC50) in [1] worked out at 39.3 nM.

As for `Cc1ccc(C(C)OC[C@H](O)CNC(C)(C)CC2Cc3ccccc3C2)c2c1OC1C(C(=O)O)C21` (stereo partly specified), the half-maximal inhibitory concentration (IC50) in [1] was 117 nM.

Turning to `Cc1ccc([C@@H](C)OC[C@H](O)CNC(C)(C)Cc2ccc3sccc3c2)c2c1O[C@@H]1[C@@H](C(=O)O)[C@H]21`, the IC50 in series [1] was 9.62 nM.

Broadly, the bioavailability is the share of a dose that reaches the circulation, judged against a reference dose that is usually intravenous. A higher bioavailability goes with good availability. What is called Cmax is the maximum level reached in the sampled fluid or tissue. Broadly, the half-life is how long it takes for the measured level to halve. In [2], `COc1ccc(CC(C)(C)NC[C@@H](O)CO[C@H](C)c2ccc(C)c3c2[C@@H]2[C@H](O3)[C@H]2C(=O)O)c(Cl)c1` yielded a bioavailability of 16.5%. This compound also gave a peak concentration (Cmax) in series [3] of 300 nM. For the same compound, in series [4], the clearance is 41 mL/min/kg. In addition, the concentration for half-maximal inhibition (IC50) in series [1] worked out at 19.6 nM. This compound also showed a half-life in series [5] of 174 min.

`Cc1ccc(C(C)OC[C@H](O)CNC(C)(C)Cc2ccc(Cl)c(F)c2)c2c1OC1C(C(=O)O)C21` (stereo partly specified): in [1], the IC50 was determined as 203 nM.

Consider `Cc1ccc([C@@H](C)OC[C@H](O)CNC(C)(C)Cc2ccc3c(c2)CCS3(=O)=O)c2c1O[C@@H]1[C@@H](C(=O)O)[C@H]21`, for which, in series [1], the concentration for half-maximal inhibition (IC50) is greater than 10000 nM.

On to `Cc1ccc([C@@H](C)OC[C@H](O)CNC(C)(C)Cc2ccc3ncccc3c2)c2c1O[C@@H]1[C@@H](C(=O)O)[C@H]21`, for which the half-maximal inhibitory concentration (IC50) in series [1] came to 457 nM.

As usually defined, the Tmax is the time at which the peak concentration occurs. For the compound `CSc1ccc(CC(C)(C)NC[C@@H](O)CO[C@H](C)c2ccc(C)c3c2[C@@H]2[C@H](O3)[C@H]2C(=O)O)cc1F`, the result in the series on Rattus norvegicus [6] was inactive. In series [2], the bioavailability came out at 6.9%. In addition, the Activity result with Rattus norvegicus [7] is “Dose-dependent effect”. Besides, the “fold change (FC)” value in the series on Rattus norvegicus [8] is recorded as 3. Further, in [3], the Cmax was 170 nM. This compound also displayed a clearance in series [4] of 40.2 mL/min/kg. The concentration for half-maximal inhibition (IC50) in series [1] was 27.6 nM. Moreover, the half-life in series [5] was 114 min. For the same compound, the Tmax in series [9] was less than 1 h.

Turning to `Cc1ccc([C@@H](C)OC[C@H](O)CNC(C)(C)CCCc2ccccc2)c2c1O[C@@H]1[C@@H](C(=O)O)[C@H]21`, in series [1], the IC50 came to 28.4 nM.

Consider `Cc1ccc(CC(C)(C)NC[C@@H](O)CO[C@H](C)c2ccc(C)c3c2[C@@H]2[C@H](O3)[C@H]2C(=O)O)cc1C`, for which, in [1], the 50% inhibitory concentration (IC50) is 17.7 nM.

On to `Cc1ccc([C@@H](C)OC[C@H](O)CNC(C)(C)Cc2ccc3ccccc3c2)c2c1O[C@H]1[C@H](C(=O)O)[C@@H]21`, for which, in series [1], the IC50 amounted to 21.6 nM.

Turning to `Cc1ccc(C(C)OC[C@H](O)CNC(C)(C)Cc2ccc3ccccc3c2)c2c1OC1C(C(=O)O)C21` (stereo partly specified), in series [1], the IC50 was found to be 64.3 nM.
